“And” between values parts separate entries of the source, which are not always exact repeats. Identical values can stand only once.
Assays:
[1] = Dissociation kinetics of the Mn(II) complexes (acid catalyzed dissociation, metal or ligand exchange reactions); assay type: physicochemical; details: I = 0.15 M NaCl, 25 °C
Description: The dissociation reactions were followed by UV-vis spectrophotometry at 269 nm for the pyclen derivatives or at 300 nm for other complexes in the pH range of 3.6–5.0 for the exchange reactions with Cu(II) and up to pH = 6.0 when Zn(II) was used as a ligand scavenger. The acid catalyzed dissociation reactions were performed in the HCl concentration range of 0.05–1.0 M. The concentration of the complexes in the samples was 0.25 mM, while the concentration of the exchanging metal ion in the metal initiated transchelation reactions was 10–40 times higher to ensure pseudo-first-order conditions. Relaxometry was used to follow the transchelation reactions of [Mn(DOTAM)]^2+, [Mn(DO3AM^H)]^2+, [Mn(DO3A)]^−, [Mn(PCTA)]^− and [Mn(ODO3A)]^− with Cu(II)/Zn(II) ions in the pH range of 3.6–5.5 (Figures S17–S19 in Supplementary Material). The concentration of the complexes in these samples was set to 1.0–2.0 mM to achieve relatively large change during the dissociation reaction. […] The temperature was maintained at 25 °C and the ionic strength of the solutions was kept constant at 0.15 M with NaCl. N,N′-dimethyl- (DMP) and N-methyl-piperazine (NMP) buffers (log K2H = 4.18 and 4.90 at 25 °C and I = 0.15 M NaCl, respectively) were used at 0.05 M concentration to keep the pH constant. The pseudo-first-order rate constants (kobs) were calculated by fitting the absorbance or relaxivity-time data pairs to Equation (1) (1) Xt=(X0-Xe)e^-kobst+Xe where Xt, X0, and Xe are the absorbance or relaxivity at time t, at the start and at equilibrium, respectively. The calculations were performed with the computer program Micromath Scientist, version 2.0 (Salt Lake City, UT, USA) using a standard least-squares procedure.
The kinetic inertness of the Mn(II) complexes is the other important parameter for the complexes considered for use in vivo. The inertness of Mn(II) complexes formed with trisubstituted 12-memberd macrocyclic ligands were characterized either by studying the rates of acid catalyzed dissociation or by studying transmetallation reactions occurring between the complexes and a suitable exchanging metal ion such as Zn(II) or Cu(II). The demetallation reactions of labile complexes were performed at high pH by following the ligand exchange reactions with trans-CDTA and DTPA ligands. The demetallation reactions were studied in the presence of a large Cu(II)/Zn(II)/trans-CDTA/DTPA excess or by using high acid concentration in order to ensure pseudo-first-order conditions (Equation 6). Scheme 1 outlines all the possible dissociation pathways for the Mn(II) complexes. […] The reactions of the released Mn(II) and L ligand with the exchanging L' and M' reactants are assumed to be very rapid.
The rate of dissociation can be expressed by the Equation (6), where kobs is the pseudo-first-order rate constant and [Mn(L)]t is the total concentration of the species containing [Mn(L)] complex. The [Mn(L)]t will differ slightly depending on the experimental conditions (in the presence of a large metal or ligand excess). As [Mn(L)]t = [Mn(L)] + [Mn(HL)] + [Mn(H2L)] + [Mn(L)M] + [Mn(L)(L')] + [Mn(HL)(L')] for reactions performed at high pH (in the pH range of 3.0–5.0 often applied in Cu(II) exchange reactions) will involve fewer protonated species while the acid catalyzed dissociation reactions run in the strongly acidic media (0.1–1.0 M acid concentration range) predominantly contain protonated species ([Mn(L)]t = [Mn(L)]+[Mn(HL)]+[Mn(H2L)]). (6) -d[MnL]t/dt=kobs[MnL]t
By taking into account the various complex species and the possible reaction pathways as well as the protonation and stability constants of the reactive intermediates, the following equation (Equation 7) can be derived to describe the rates of dissociation. […]

[2] = ref Rolla et al. ([2013]); cited from earlier work

## O=C(O)CN1CCNCCN(CC(=O)O)CCN(CC(=O)O)CC1 [DO3A]
[1]
  k1 (proton-assisted dissociation): 0.45 M⁻¹ s⁻¹
[2]
  r1p: 1.30 mM⁻¹ s⁻¹

## O=P(O)(O)CN1CCNCCN(CP(=O)(O)O)CCN(CP(=O)(O)O)CC1 [DO3P]
[1]; ligand exchange reaction with trans-CDTA^4− or DTPA^5− in the pH range 8-9.5
  k1 (proton-assisted dissociation): 240000 M⁻¹ s⁻¹

## NC(=O)CN1CCN(CC(N)=O)Cc2cccc(n2)CN(CC(N)=O)CC1 [PC3AM^H]
[1]
  k1 (proton-assisted dissociation): 0.0107 M⁻¹ s⁻¹

## O=C(O)CN1CCN(CC(=O)O)Cc2cccc(n2)CN(CC(=O)O)CC1 [PCTA]
[1]; stopped-flow in highly acidic condition, proton-assisted dissociation of the [Mn(HL)] complex
  k1 (proton-assisted dissociation): 0.112 M⁻¹ s⁻¹ and 0.109 M⁻¹ s⁻¹

## O=C(CN1CCN(CC(=O)N2CCCCC2)Cc2cccc(n2)CN(CC(=O)N2CCCCC2)CC1)N1CCCCC1.[Mn+2] [[Mn(PC3AM^Pip)]^2+]
[1]
  k1 (proton-assisted dissociation): (4.64 ± 0.04) × 10^−3 M^−1s^−1
[1]; half-life of dissociation calculated for 0.1 M H+
  t1/2 0.1 M HCl: 25 min
